According to ChEMBL document CHEMBL1201862, “PubChem BioAssay data set” (2004):
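96-well plates; 48 h exposure; 5 concentrations. Endpoints by linear interpolation between flanking doses. Not reached: highest tested concentration assigned. GI50: concentration for 50% inhibition of growth.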 Calls of active or inactive are those of the source. Rule as the data show it: active = GI50 up to about 1.1 µM and inactive = higher.

Legend:
Assay in all cases: NCI-60 cell line screen, 48 h
HCT-15 = test system: HCT-15
SK-OV-3 = test system: SK-OV-3
HCT-116 = test system: HCT-116
NCI/ADR-RES = test system: NCI/ADR-RES
MOLT-4 = test system: MOLT-4
CCRF-CEM = test system: CCRF-CEM
SK-MEL-5 = test system: SK-MEL-5
TK-10 = test system: TK-10
UACC-62 = test system: UACC-62
RXF 393 = test system: RXF 393
OVCAR-8 = test system: OVCAR-8
Malme-3M = test system: Malme-3M
HOP-92 = test system: HOP-92
DU-145 = test system: DU-145
DLD-1 = test system: DLD-1
MDA-MB-435 = test system: MDA-MB-435
RPMI-8226 = test system: RPMI-8226
OVCAR-3 = test system: OVCAR-3
786-0 = test system: 786-0
XF498 = test system: XF498
NCI-H522 = test system: NCI-H522
M14 = test system: M14
M19-MEL = test system: M19-MEL
ACHN = test system: ACHN
NCI-H23 = test system: NCI-H23
UO-31 = test system: UO-31
SF-295 = test system: SF-295
MCF7 = test system: MCF7
MDA-MB-231 = test system: MDA-MB-231
U-251 = test system: U-251
SF-268 = test system: SF-268
MDA-N = test system: MDA-N
COLO 205 = test system: COLO 205
SNB-19 = test system: SNB-19
DMS-273 = test system: DMS-273
CAKI-1 = test system: CAKI-1
NCI-H226 = test system: NCI-H226
HL-60 = test system: HL-60
SK-MEL-28 = test system: SK-MEL-28
BT-549 = test system: BT-549
SF-539 = test system: SF-539
LXFL 529 = test system: LXFL 529
PC-3 = test system: PC-3
LOX IMVI = test system: LOX IMVI
Hs-578T = test system: Hs-578T
KM12 = test system: KM12
HOP-18 = test system: HOP-18
HCC 2998 = test system: HCC 2998
DMS-114 = test system: DMS-114
T47D = test system: T47D
SNB-75 = test system: SNB-75
SN12C = test system: SN12C
NCI-H460 = test system: NCI-H460
SR = test system: SR
A498 = test system: A498
SW-620 = test system: SW-620
KM-20L2 = test system: KM-20L2
SNB-78 = test system: SNB-78
OVCAR-5 = test system: OVCAR-5
OVCAR-4 = test system: OVCAR-4
A549 = test system: A549
IGROV-1 = test system: IGROV-1
HOP-62 = test system: HOP-62
K562 = test system: K562
EKVX = test system: EKVX
HT-29 = test system: HT-29
UACC-257 = test system: UACC-257
SK-MEL-2 = test system: SK-MEL-2
RXF 631 = test system: RXF 631

## CCOc1ccc(NC2=CC(=O)C(=O)c3ccccc32)cc1
HCT-15
  GI50: 2.34 µM
SK-OV-3
  GI50: 11.3 µM (inactive)
HCT-116
  GI50: 3.35 µM (inactive)
NCI/ADR-RES
  GI50: 2.83 µM (inactive)
MOLT-4
  GI50: 8.83 µM (inactive)
CCRF-CEM
  GI50: 9.48 µM (inactive)
SK-MEL-5
  GI50: 1.59 µM (inactive)
TK-10
  GI50: 8.32 µM (inactive)
UACC-62
  GI50: 1.72 µM (inactive)
RXF 393
  GI50: 5.87 µM (inactive)
OVCAR-8
  GI50: 4.33 µM (inactive)
Malme-3M
  GI50: 2.08 µM (inactive)
HOP-92
  GI50: 9.48 µM (inactive)
DU-145
  GI50: 2.38 µM (inactive)
DLD-1
  GI50: 4.43 µM (inactive)
MDA-MB-435
  GI50: 1.8 µM (inactive)
RPMI-8226
  GI50: 4.47 µM (inactive)
OVCAR-3
  GI50: 2.86 µM (inactive)
786-0
  GI50: 3.78 µM (inactive)
XF498
  GI50: 2.25 µM (inactive)
NCI-H522
  GI50: 1.81 µM (inactive)
M14
  GI50: 1.75 µM (inactive)
M19-MEL
  GI50: 0.647 µM (active)
ACHN
  GI50: 2.28 µM (inactive)
NCI-H23
  GI50: 1.91 µM (inactive)
UO-31
  GI50: 4.45 µM (inactive)
SF-295
  GI50: 2.61 µM (inactive)
MCF7
  GI50: 2.15 µM (inactive)
MDA-MB-231
  GI50: 12.1 µM (inactive)
U-251
  GI50: 3.85 µM (inactive)
SF-268
  GI50: 6.25 µM (inactive)
MDA-N
  GI50: 2.05 µM (inactive)
COLO 205
  GI50: 3.64 µM (inactive)
SNB-19
  GI50: 2.94 µM (inactive)
DMS-273
  GI50: 2.88 µM (inactive)
CAKI-1
  GI50: 8.05 µM (inactive)
NCI-H226
  GI50: 4.86 µM (inactive)
HL-60
  GI50: 0.459 µM (active)
SK-MEL-28
  GI50: 3.27 µM (inactive)
BT-549
  GI50: 1.66 µM (inactive)
SF-539
  GI50: 1.97 µM (inactive)
LXFL 529
  GI50: 3.47 µM (inactive)
PC-3
  GI50: 3.12 µM (inactive)
LOX IMVI
  GI50: 1.3 µM (inactive)
Hs-578T
  GI50: 2.37 µM (inactive)
KM12
  GI50: 3.77 µM (inactive)
HOP-18
  GI50: 2.6 µM (inactive)
HCC 2998
  GI50: 13.1 µM (inactive)
DMS-114
  GI50: 1.88 µM (inactive)
T47D
  GI50: 8.79 µM (inactive)
SNB-75
  GI50: 2.35 µM (inactive)
SN12C
  GI50: 1.82 µM (inactive)
NCI-H460
  GI50: 2.47 µM (inactive)
SR
  GI50: 3.4 µM (inactive)
A498
  GI50: 3.61 µM (inactive)
SW-620
  GI50: 1.82 µM (inactive)
KM-20L2
  GI50: 18.7 µM (inactive)
SNB-78
  GI50: 15.5 µM (inactive)
OVCAR-5
  GI50: 3.77 µM (inactive)
OVCAR-4
  GI50: 3.48 µM (inactive)
A549
  GI50: 2.74 µM (inactive)
IGROV-1
  GI50: 4.29 µM (inactive)
HOP-62
  GI50: 3.88 µM (inactive)
K562
  GI50: 5.07 µM (inactive)
EKVX
  GI50: 16.4 µM (inactive)
HT-29
  GI50: 5.35 µM (inactive)
UACC-257
  GI50: 1.63 µM (inactive)
SK-MEL-2
  GI50: 4.31 µM (inactive)

## CN1C(=N\S(=O)(=O)c2ccc(Cl)cc2)/C(=N/N=P(c2ccccc2)(c2ccccc2)c2ccccc2)c2ccccc21
HCT-15
  GI50: > 100 µM
SK-OV-3
  GI50: > 100 µM (inactive)
HCT-116
  GI50: > 100 µM (inactive)
MOLT-4
  GI50: > 100 µM (inactive)
CCRF-CEM
  GI50: > 100 µM (inactive)
SK-MEL-5
  GI50: > 100 µM (inactive)
TK-10
  GI50: > 100 µM (inactive)
UACC-62
  GI50: > 100 µM (inactive)
RXF 393
  GI50: > 100 µM (inactive)
OVCAR-8
  GI50: > 100 µM (inactive)
Malme-3M
  GI50: > 100 µM (inactive)
DLD-1
  GI50: > 100 µM (inactive)
OVCAR-3
  GI50: > 100 µM (inactive)
XF498
  GI50: > 100 µM (inactive)
NCI-H522
  GI50: > 100 µM (inactive)
M14
  GI50: > 100 µM (inactive)
M19-MEL
  GI50: > 100 µM (inactive)
ACHN
  GI50: > 100 µM (inactive)
NCI-H23
  GI50: > 100 µM (inactive)
UO-31
  GI50: > 100 µM (inactive)
SF-295
  GI50: > 100 µM (inactive)
U-251
  GI50: > 100 µM (inactive)
SF-268
  GI50: > 100 µM (inactive)
COLO 205
  GI50: > 100 µM (inactive)
SNB-19
  GI50: > 100 µM (inactive)
DMS-273
  GI50: > 100 µM (inactive)
CAKI-1
  GI50: > 100 µM (inactive)
NCI-H226
  GI50: 73.3 µM (inactive)
SK-MEL-28
  GI50: > 100 µM (inactive)
SF-539
  GI50: > 100 µM (inactive)
LXFL 529
  GI50: > 100 µM (inactive)
KM12
  GI50: > 100 µM (inactive)
HCC 2998
  GI50: > 100 µM (inactive)
SNB-75
  GI50: > 100 µM (inactive)
SN12C
  GI50: > 100 µM (inactive)
RXF 631
  GI50: > 100 µM (inactive)
NCI-H460
  GI50: > 100 µM (inactive)
SR
  GI50: > 100 µM (inactive)
A498
  GI50: > 100 µM (inactive)
SW-620
  GI50: > 100 µM (inactive)
KM-20L2
  GI50: > 100 µM (inactive)
SNB-78
  GI50: > 100 µM (inactive)
OVCAR-5
  GI50: > 100 µM (inactive)
OVCAR-4
  GI50: > 100 µM (inactive)
A549
  GI50: 95.7 µM (inactive)
IGROV-1
  GI50: > 100 µM (inactive)
K562
  GI50: > 100 µM (inactive)
EKVX
  GI50: > 100 µM (inactive)
HT-29
  GI50: > 100 µM (inactive)
UACC-257
  GI50: > 100 µM (inactive)
SK-MEL-2
  GI50: > 100 µM (inactive)
